Data as given in US12295937B2, “Psychoactive medicines and their use for treating psychiatric and neurological conditions and disorders” (Transcend Therapeutics, Inc., priority 2021, dated 2025).

How the values were obtained:
[1] = Mouse head-twitch response (HTR) test; format: in vivo; settings: i.p., HTR measured for 10 minutes
Procedure: Head twitch response (HTR) was evaluated using C57BL/6J mice (ages 7-10 weeks). Mice were ear tagged at least three days after arrival to the animal facility and allowed to rest for at least three days before behavioral testing. Small magnets (SuperMagnetMan—N45 magnet 3 mm diameter, 0.5 mm thickness) were glued to car tags (Stoelting—La Pias Aluminum Ear Tags) at least two days before mice were car tagged. The experimental setup was adapted from Gonzales-Macso (de la Fuente Revenga et al., 2019) and Kwan (Jefferson et al., 2022; Savalia et al., 2021), including experimental apparatus and MATLAB code for analysis.
Doses were randomly assigned, and age-matched controls were injected with vehicle and randomly interspersed with drug conditions. At least three animals per sex were used for each drug dose and condition. If animals were used in multiple HTR experiments, experimental sessions took place at least one week apart. Two animals were run at a time. Immediately after i.p. injection of psychedelic or entactogen drug, animals were placed in separate plastic boxes within a larger chamber (Home Depot—28 in. W×32 in. H×21.5 in. D), and HTR was measured for 10 minutes. A small lamp was placed in the back of the larger chamber, and a high-speed camera (Basler-Aca 1920-155 μm) was suspended from the ceiling to record video of the animals in the plastic boxes. […]

[2] = tested on: gene expression in amygdala, frontal cortex, hippocampus; assay: RNA-sequencing of rat brain areas after a single dose; format: in vivo; settings: for Genes differentially regulated vs. vehicle: 10 mg/kg IP, 8 hours
[3] = IMPACT-1 Part A open-label study in PTSD; format: in vivo, human; design: Anxiety Sub-Scale of MADRS, score reduction / Participants with absence of Reduced Sleep (MADRS): concentration or dose not given beside the values
Procedure: For each participant in Parts A and B, the study consists of: • Screening Period (Day −28 to Day −4): Informed consent, eligibility assessment, and enrolment of eligible participants. • Baseline/Preparatory Session (Day −3 to Day −1): Baseline assessments, confirmation of eligibility, and a preparatory psychoeducation session leading to enrolment confirmation. • Treatment Period (Day 1 to Day 24): Four weekly dose sessions, with associated remote sessions. The dose sessions last at least 8 hours, or until all effects (physical and psychological) have resolved (whichever is longer). Each dose session is followed by a safety phone call 1 day after dosing and efficacy assessments 2 days after dosing. Each dosing period is video recorded for quality and training purposes. The videos may be reviewed to ensure the Mentor is adhering to the Mentor training. • Follow-Up Period (Day 29 to Day 64): Follow-Up visits for safety and efficacy occur at 1, 2, 3 and 6 weeks post-final study drug administration. In addition, there are Mentor-Led Reflection Sessions 1, 2 and 3 weeks post-final study drug administration. Participants are contacted via telephone on Day 57 (±2 days) for Follow-Up. • Discontinuations: Participants who discontinue prematurely are asked to return for an extra visit to duplicate the 6-week end-of-study (EOS) visit.
Each dose was given as an initial dose, followed by a second dose 90 minutes later. During the dosing session, participants were accompanied by a trained Mentor who provided non-directive support. After the 4-week treatment period, participants attended follow-up visits at 1, 2, 3, and 6 weeks following the last dose. Safety was assessed via standard measures including adverse events. PTSD symptoms were assessed via Clinician-Administered PTSD Scale for DSM-5 (CAPS-5), depressive symptoms were assessed via Montgomery-Åsberg Depression Rating Scale (MADRS). Anti-anxiety efficacy was evaluated using the Anxiety Sub-Scale of MADRS, namely, questions (Items 3, 4, 5, 6) that address four anxiety items (inner tension, reduced sleep, reduced appetite, concentration difficulties) Changes from baseline were analyzed using a paired t-test p-values.
Methods: The IMPACT-1 study is a multi-center, two-part clinical trial. Part A has completed and was an open-label evaluation involving 14 participants with PTSD. Eligible participants are adults with severe PTSD (CAPS-5≥35) who had failed at least 1 prior treatment (pharmacotherapy and/or psychotherapy) for PTSD. […] Throughout each dosing session, participants were provided non-directive psychological support by a trained mental health practitioner. Following the 4-week treatment period, participants were followed for an additional 6 weeks to evaluate the durability of the therapeutic effect. PTSD symptom improvement was evaluated on the CAPS-5. Functioning was assessed via the 3 domains (school/work, family life, social life) of the Sheehan Disability Scale (SDS). Global improvement was measured by the CGI-I. Safety was assessed by monitoring adverse events, vital signs, and C-SSRS.
Following the 4-week treatment period, participants were followed for an additional 6 weeks to evaluate the durability of the therapeutic effect. Sleep-related improvements were evaluated on the CAPS-5 (including distressing dreams [item B2; scores range 0 to 4] and sleep disturbances [item E6; scores range 0 to 4]), the Pittsburgh Sleep Quality Index (PSQI; total scores range 0 to 21) and subscales, and the reduced sleep item of the Montgomery-Åsberg Depression Rating Scale (MADRS; scores range 0 to 6).

In the case of `CNC(C)C(=O)c1ccc2c(c1)OCO2` (stereo not drawn) [Methylone, 3,4-methylenedioxy-N-methylcathinone], the Head-twitch behaviors [1] was “no effect on head-twitch behaviors at any dose tested”, the “Genes regulated by methylone that are also regulated by MDMA” value ([2]; amygdala) was 87% and the “Genes differentially regulated vs. vehicle” value ([2]; amygdala, >25% change, padj<0.1) was 121 genes. The “Genes regulated by both treatments” value ([2]; frontal cortex) was 154 genes, the Genes significantly regulated ([2]; frontal cortex, 10 mg/kg IP (Example 27)) was 480 genes and the “Genes differentially regulated vs. vehicle” value ([2]; frontal cortex) was 471 genes. The “Genes differentially regulated vs. vehicle” value ([2]; hippocampus) was 12 genes, the CAPS-5 score decrease ([3]; 6 weeks after the last dose) was 36.2 points and the MADRS score decrease ([3]; 6 weeks after the last dose) was 21.4 points. For the same compound, the “Anxiety Sub-Scale of MADRS, score reduction” value ([3]; Day 3) was 20%, the CAPS-5 score decrease ([3]; Day 3) was 8.4 points and the MADRS score decrease ([3]; Day 3) was 8.2 points. The “Anxiety Sub-Scale of MADRS, score reduction” value ([3]; Day 10) was 43%, the CAPS-5 score decrease ([3]; Day 10) was 23.3 points and the MADRS score decrease ([3]; Day 10) was 16.2 points. For the same compound, the “Participants achieving remission (CAPS-5)” value ([3]; Day 10) was ~40%, the “Participants much or very much improved (CGI-I)” value ([3]; Day 10, two days after the 2nd dose) was ~70% and the “Anxiety Sub-Scale of MADRS, score reduction” value ([3]; Day 17) was 50%. For the same compound, the “Anxiety Sub-Scale of MADRS, score reduction” value ([3]; Day 24) was 57%, the “Anxiety Sub-Scale of MADRS, score reduction” value ([3]; Day 29) was 56% and the “Anxiety Sub-Scale of MADRS, score reduction” value ([3]; Day 36) was 66%. For the same compound, the “Anxiety Sub-Scale of MADRS, score reduction” value ([3]; Day 43) was 64%, the “Anxiety Sub-Scale of MADRS, score reduction” value ([3]; Day 64) was 66% and the “SDS score, Family Life” value ([3]; Day 64) was 3.1 (3.45). For the same compound, the “SDS score, Mean Overall” value ([3]; Day 64) was 3.1 (3.12), the “SDS score, Social Life” value ([3]; Day 64) was 3.2 (3.39) and the “SDS score, Work/School” value ([3]; Day 64) was 3.3 (3.78). For the same compound, the “TEAE: Bruxism” value ([3]; N = 14) was 14.3%, the “TEAE: Decreased appetite” value ([3]; N = 14) was 28.6% and the “TEAE: Dizziness” value ([3]; N = 14) was 14.3%. The “TEAE: Fatigue” value ([3]; N = 14) was 21.4%, the “TEAE: Headache” value ([3]; N = 14) was 42.9% and the “TEAE: Hyperhidrosis” value ([3]; N = 14) was 14.3%. The “TEAE: Influenza-like illness” value ([3]; N = 14) was 14.3%, the “TEAE: Insomnia” value ([3]; N = 14) was 14.3% and the “TEAE: Nasopharyngitis” value ([3]; N = 14) was 14.3%. For the same compound, the “TEAE: Non-cardiac chest pain” value ([3]; N = 14) was 21.4%, the “Drug-related serious adverse events” value ([3]; Part A) was “No drug-related SAEs occurred” and the “TEAE: Any AE” value ([3]; Safety Population N = 14) was 78.6%. The “CAPS-5 mean change from baseline” value ([3]; after the first dose) was −8.4 points, the “SDS mean change from baseline” value ([3]; after the first dose) was −1.53 and the “Participants with absence of Distressing Dreams” value ([3]; after treatment) was 77%. For the same compound, the “Participants with absence of Reduced Sleep (MADRS)” value ([3]; after treatment) was 62%, the “Participants with absence of Sleep Disturbances” value ([3]; after treatment) was 62% and the “CAPS-5 Distressing Dreams (item B2) mean score” value ([3]; after treatment, baseline 2.2) was 0.38. The “CAPS-5 Sleep Disturbances (item E6) mean score” value ([3]; after treatment, baseline 3.3) was 0.92, the “MADRS Reduced Sleep mean score” value ([3]; after treatment, baseline 4.3) was 1.08 and the “PSQI total mean score” value ([3]; end of study) was 9.4. The “Participants having mild or no impairment (SDS)” value ([3]; end of study) was > 50%, the “PSQI total score improvement” value ([3]; end of study (6 weeks after the last dose), baseline 13.5) was −4.0 points and the “CAPS-5 mean change from baseline” value ([3]; end of study visit (6 weeks after the last dose)) was −36.2 points. For the same compound, the “Change in number of days lost” value ([3]; end of the 4-week treatment period, baseline 2.6) was -2.0 days, the “Change in number of days underproductive” value ([3]; end of the 4-week treatment period, baseline 4.7) was -3.3 days and the “Participants achieving remission (CAPS-5)” value ([3]; end of the study) was 61.5%. The “Participants much or very much improved (CGI-I)” value ([3]; end of the study) was “all participants”, the “Patient-reported chronic pain after methylone” value ([3]; one subject, knees, before 7-8 and 8-9 out of 10) was 2-3 out of 10 and the “SDS mean change from baseline” value ([3]; through the 6-week follow-up period) was −4.26.
